Laboratory results: US8735391B2, “Synthesis of functionalized octahydro-isoquinolin-1-one-8-carboxamides, octahydro-isoquinolin-1-one-8-carboxylic esters and analogs, and therapeutic methods” (University of Kansas, priority 2008, dated 2014)

Target: KOR (Homo sapiens, UniProt P41145)
Assay: Opioid secondary binding, KOR (Tables 4, 5, 8, 9)
Conditions: not given

Chain of KOR (P41145 whole entry): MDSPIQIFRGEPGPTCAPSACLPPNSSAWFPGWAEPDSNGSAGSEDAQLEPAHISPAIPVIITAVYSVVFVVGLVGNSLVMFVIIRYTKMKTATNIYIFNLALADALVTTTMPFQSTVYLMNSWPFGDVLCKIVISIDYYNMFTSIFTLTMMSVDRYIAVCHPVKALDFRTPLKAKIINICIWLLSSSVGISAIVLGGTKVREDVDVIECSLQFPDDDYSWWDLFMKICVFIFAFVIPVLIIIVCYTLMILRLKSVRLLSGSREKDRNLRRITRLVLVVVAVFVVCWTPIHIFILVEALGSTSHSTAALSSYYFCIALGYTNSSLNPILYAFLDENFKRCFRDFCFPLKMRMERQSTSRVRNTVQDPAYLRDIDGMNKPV

Row | Compound | Ki
1 | O=C(NC1CCCCC1)[C@@H]1CC=C[C@@H]2CCN(Cc3ccccc3)C(=O)[C@@H]21 [compound 11791] | 1300 nM

Same assay, conditions: Opioid secondary binding activity for Formula 10 analogs; read-out: KOR, Ki

Row | Compound | Ki
2 | O=C(OCc1ccccc1)C1CCCN1C(=O)C1CC=CC2CCN(Cc3ccc(Cl)cc3)C(=O)C21 (mixture of isomers) [compound 11808] | 2290 nM
3 | COC(=O)C(CCSC)NC(=O)C1CC=CC2CCN(Cc3ccccc3)C(=O)C21 (mixture of isomers) [compound 11816] | 2630 nM
4 | COC(=O)C(C)NC(=O)C1CC=CC2CCN(Cc3ccccc3)C(=O)C21 (mixture of isomers) [compound 11818] | 6170 nM
5 | O=C(OCc1ccccc1)C(Cc1ccccc1)NC(=O)C1CC=CC2CCN(Cc3ccccc3)C(=O)C21 (mixture of isomers) [compound 11819] | 1290 nM
6 | CCOC(=O)CCC(NC(=O)C1CC=CC2CCN(C3CCCCC3)C(=O)C21)C(=O)OCC (mixture of isomers) [compound 11821] | 4710 nM
7 | COC(=O)C(CCSC)NC(=O)C1CC=CC2CCN(C3CCCCC3)C(=O)C21 (mixture of isomers) [compound 11822] | 4500 nM
8 | O=C(OCc1ccccc1)C(Cc1ccccc1)NC(=O)C1CC=CC2CCN(C3CCCCC3)C(=O)C21 (mixture of isomers) [compound 11825] | 1110 nM
9 | O=C(OCc1ccccc1)C(Cc1ccccc1)NC(=O)C1CC=CC2CCN(CCc3ccccc3)C(=O)C21 (mixture of isomers) [compound 11831] | 1520 nM
10 | CC(NC(=O)C1CC=CC2CCN(C3CCCCC3)C(=O)C21)c1ccccc1 (mixture of isomers) [compound 11836] | 599 nM
11 | CC(NC(=O)C1CC=CC2CCN(CCc3ccccc3)C(=O)C21)c1ccccc1 (mixture of isomers) [compound 11848] | 3490 nM
12 | CC(NC(=O)C1CC=CC2CCN(Cc3ccccc3)C(=O)C21)c1ccccc1 (mixture of isomers) [compound 11854] | 712 nM
13 | O=C(O)C(Cc1ccccc1)NC(=O)C1CC=CC2CCN(Cc3ccccc3)C(=O)C21 (mixture of isomers) [compound 11902] | 3380 nM
14 | O=C(Nc1cccc(Cl)c1)[C@@H]1CC=C[C@@H]2CCN(c3ccccc3)C(=O)[C@@H]21 (racemic) [compound 10821] | 420 nM
15 | O=C(Nc1ccc(C(F)(F)F)cc1)[C@@H]1CC=C[C@@H]2CCN(c3ccccc3)C(=O)[C@@H]21 (racemic) [compound 10822] | 786 nM
16 | O=C(Nc1ccc(F)c(F)c1)[C@@H]1CC=C[C@@H]2CCN(c3ccccc3)C(=O)[C@@H]21 (racemic) [compound 10823] | 375 nM
17 | O=C(Nc1c(F)cccc1F)[C@@H]1CC=C[C@@H]2CCN(c3ccccc3)C(=O)[C@@H]21 (racemic) [compound 10824] | 5000 nM
18 | O=C(Nc1ccc(Cl)cc1Cl)[C@@H]1CC=C[C@@H]2CCN(c3ccccc3)C(=O)[C@@H]21 (racemic) [compound 10826] | 287 nM
19 | O=C(Nc1ccc(Cl)cc1Cl)[C@@H]1CC=C[C@@H]2CCN(CCc3ccccc3)C(=O)[C@@H]21 (racemic) [compound 10834] | 6480 nM
20 | COc1ccc(NC(=O)[C@@H]2CC=C[C@@H]3CCN(Cc4ccc(Cl)cc4)C(=O)[C@@H]32)cc1 (racemic) [compound 10835] | 5070 nM
21 | O=C(Nc1cccc(Cl)c1)[C@@H]1CC=C[C@@H]2CCN(Cc3ccc(Cl)cc3)C(=O)[C@@H]21 (racemic) [compound 10836] | 225 nM
22 | O=C(Nc1ccc(C(F)(F)F)cc1)C1CC=CC2CCN(Cc3ccc(Cl)cc3)C(=O)C21 (racemic) [compound 10837] | 2530 nM
23 | O=C(Nc1cccc(C(F)(F)F)c1)C1CC=CC2CCN(Cc3ccc(Cl)cc3)C(=O)C21 (racemic) [compound 10838] | 1510 nM
24 | O=C(Nc1ccc(F)c(F)c1)C1CC=CC2CCN(Cc3ccc(Cl)cc3)C(=O)C21 (racemic) [compound 10839] | 652 nM
25 | O=C(Nc1ccc(Cl)c(C(F)(F)F)c1)C1CC=CC2CCN(Cc3ccc(Cl)cc3)C(=O)C21 (racemic) [compound 10841] | 465 nM

Row | Compound | Ki
26 | CC(C)N1CCC2C=CCC(C(=O)Nc3cccc(Cl)c3)C2C1=O (racemic) [compound 10844] | 2130 nM
27 | CC(C)N1CCC2C=CCC(C(=O)Nc3cccc(C(F)(F)F)c3)C2C1=O (racemic) [compound 10846] | 621 nM
28 | CC(C)N1CCC2C=CCC(C(=O)Nc3ccc(F)c(F)c3)C2C1=O (racemic) [compound 10847] | 4200 nM
29 | CC(C)N1CCC2C=CCC(C(=O)Nc3ccc(Cl)c(C(F)(F)F)c3)C2C1=O (racemic) [compound 10849] | 261 nM
30 | CC(C)N1CCC2C=CCC(C(=O)Nc3ccc(Cl)cc3Cl)C2C1=O (racemic) [compound 10850] | 2410 nM
31 | O=C(Nc1ccc(Cl)c(C(F)(F)F)c1)C1CCCC2CCN(C3CCCCC3)C(=O)C21 (racemic) [compound 11479] | 792 nM
32 | O=C(NCc1ccc(Cl)c(C(F)(F)F)c1)[C@@H]1CC=C[C@@H]2CCN(C3CCCCC3)C(=O)[C@@H]21 (racemic) [compound 11856] | 531 nM
33 | O=C(Nc1ccc(Br)c(C(F)(F)F)c1)[C@@H]1CC=C[C@@H]2CCN(C3CCCCC3)C(=O)[C@@H]21 (racemic) [compound 11857] | 814 nM
34 | O=C(Nc1ccc(Cl)cc1C(F)(F)F)[C@@H]1CC=C[C@@H]2CCN(C3CCCCC3)C(=O)[C@@H]21 (racemic) [compound 11858] | 866 nM
35 | Cc1cc(NC(=O)[C@@H]2CC=C[C@@H]3CCN(C4CCCCC4)C(=O)[C@@H]32)ccc1Cl (racemic) [compound 11860] | 716 nM
36 | O=C(Nc1ccc(C(F)(F)F)cc1Cl)[C@@H]1CC=C[C@@H]2CCN(c3ccccc3)C(=O)[C@@H]21 (racemic) [compound 11865] | 180 nM
37 | O=C(Nc1ccc(C(F)(F)F)cc1Cl)[C@@H]1CC=C[C@@H]2CCN(CCc3ccccc3)C(=O)[C@@H]21 (racemic) [compound 11877] | 3300 nM
38 | O=C(NC1CCCCC1)[C@@H]1CC=C[C@@H]2CCN(CC3CCCCC3)C(=O)[C@@H]21 (racemic) [compound 11886] | 177 nM
39 | O=C(Nc1ccccc1)[C@@H]1CC=C[C@@H]2CCN(CC3CCCCC3)C(=O)[C@@H]21 (racemic) [compound 11887] | 187 nM
40 | O=C(Nc1ccc(F)c(F)c1)[C@@H]1CC=C[C@@H]2CCN(CC3CCCCC3)C(=O)[C@@H]21 (racemic) [compound 11889] | 131 nM
41 | O=C(Nc1ccc(Cl)c(C(F)(F)F)c1)[C@@H]1CC=C[C@@H]2CCN(CC3CCCCC3)C(=O)[C@@H]21 (racemic) [compound 11890] | 840 nM
42 | O=C1NCC[C@H]2C=CC[C@@H](C(=O)Nc3ccc(Cl)c(C(F)(F)F)c3)[C@@H]12 (racemic) [compound 11896] | 729 nM
43 | O=C(Nc1ccc(F)cc1)[C@@H]1CC=C[C@@H]2CCN(Cc3ccccc3)C(=O)[C@@H]21 (racemic) [compound 11909] | 276 nM
44 | O=C(NCc1ccccc1)[C@@H]1CC=C[C@@H]2CCN(C3CCCCC3)C(=O)[C@@H]21 (racemic) [compound 11918] | 358 nM
45 | Cc1ccc(NC(=O)[C@@H]2CC=C[C@@H]3CCN(C4CCCCC4)C(=O)[C@@H]32)cc1Cl (racemic) [compound 11919] | 102 nM
46 | O=C(Nc1ccc([N+](=O)[O-])c(C(F)(F)F)c1)[C@@H]1CC=C[C@@H]2CCN(C3CCCCC3)C(=O)[C@@H]21 (racemic) [compound 11920] | 5110 nM
47 | COc1cccc(F)c1CN1CC[C@H]2C=CC[C@@H](C(=O)Nc3ccc(C)c(F)c3F)[C@H]2C1=O (racemic) [compound 13485] | 5120 nM
48 | O=C(Nc1c(F)c(F)c(F)c(F)c1F)[C@@H]1CC=C[C@@H]2CCN(Cc3ccccc3)C(=O)[C@@H]21 (racemic) [compound 14309] | 2970 nM
49 | O=C(Nc1ccccc1)[C@@H]1CC=C[C@@H]2CCN(Cc3ccccc3)C(=O)[C@@H]21 [compound 11793] | 1610 nM

Target: DOR (Homo sapiens, UniProt P41143)
Sequence (P41143 whole entry): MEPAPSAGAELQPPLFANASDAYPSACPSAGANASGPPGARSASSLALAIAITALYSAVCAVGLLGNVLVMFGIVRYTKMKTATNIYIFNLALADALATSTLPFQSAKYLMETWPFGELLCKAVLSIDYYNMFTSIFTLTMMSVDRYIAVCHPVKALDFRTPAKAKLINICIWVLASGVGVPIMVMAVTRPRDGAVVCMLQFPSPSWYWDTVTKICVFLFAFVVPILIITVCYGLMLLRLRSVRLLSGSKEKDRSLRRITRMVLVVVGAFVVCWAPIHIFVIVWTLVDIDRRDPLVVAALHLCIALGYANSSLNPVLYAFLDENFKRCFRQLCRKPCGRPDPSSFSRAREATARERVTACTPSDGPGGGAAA
Assay: Opioid secondary binding, DOR (Table 4)
Conditions: Opioid secondary binding activity for Formula 10 analogs

Row | Compound | Ki
50 | CC(c1ccccc1)N1CCC2C=CCC(C(=O)Nc3cccc(Cl)c3)C2C1=O (mixture of isomers) [compound 12165] | 1210 nM
51 | CC(c1ccccc1)N1CCC2C=CCC(C(=O)Nc3ccc(F)c(F)c3)C2C1=O (mixture of isomers) [compound 12166] | 3200 nM
52 | CC(c1ccccc1)N1CCC2C=CCC(C(=O)Nc3nccs3)C2C1=O (mixture of isomers) [compound 12168] | 1450 nM
53 | O=C(Nc1cccnc1)[C@@H]1CC=C[C@@H]2CCN(C3CCCCC3)C(=O)[C@@H]21 (racemic) [compound 11921] | 836 nM
54 | Cc1ccc(NC(=O)[C@@H]2CC=C[C@@H]3CCN(c4ccccc4)C(=O)[C@@H]32)cc1Cl (racemic) [compound 11925] | 15 nM
55 | O=C(Nc1ccc([N+](=O)[O-])c(C(F)(F)F)c1)[C@@H]1CC=C[C@@H]2CCN(c3ccccc3)C(=O)[C@@H]21 (racemic) [compound 11926] | 35 nM
56 | O=C(Nc1cccnc1)[C@@H]1CC=C[C@@H]2CCN(c3ccccc3)C(=O)[C@@H]21 (racemic) [compound 11927] | 2100 nM
57 | O=C(NCc1ccccc1)[C@@H]1CC=C[C@@H]2CCN(Cc3ccccc3)C(=O)[C@@H]21 (racemic) [compound 11930] | 739 nM
58 | O=C(Nc1cccnc1)[C@@H]1CC=C[C@@H]2CCN(Cc3ccccc3)C(=O)[C@@H]21 (racemic) [compound 11933] | 3530 nM
59 | O=C(NC12CC3CC(CC(C3)C1)C2)[C@@H]1CC=C[C@@H]2CCN(CC3CC3)C(=O)[C@@H]21 (racemic) [compound 11940] | 701 nM
60 | O=C(Nc1ccc(I)cc1)[C@@H]1CC=C[C@@H]2CCN(CC3CC3)C(=O)[C@@H]21 (racemic) [compound 11942] | 1280 nM
61 | Cc1cc(C)c(NC(=O)[C@@H]2CC=C[C@@H]3CCN(CC4CC4)C(=O)[C@@H]32)c(C)c1 (racemic) [compound 11945] | > 10000 nM
62 | O=C(NC12CC3CC(CC(C3)C1)C2)[C@@H]1CC=C[C@@H]2CCN(c3ccccc3)C(=O)[C@@H]21 (racemic) [compound 11946] | 116 nM
63 | O=C(Nc1ccc([N+](=O)[O-])cc1)[C@@H]1CC=C[C@@H]2CCN(c3ccccc3)C(=O)[C@@H]21 (racemic) [compound 11947] | 141 nM
64 | O=C(Nc1ccc(I)cc1)[C@@H]1CC=C[C@@H]2CCN(c3ccccc3)C(=O)[C@@H]21 (racemic) [compound 11948] | 83 nM
